Consider 28 compounds from ChEMBL document CHEMBL5291721, “A preclinical secondary pharmacology resource illuminates target-adverse drug reaction associations of marketed drugs” (Nat Commun, 2023).

*1 amine or outer side, *2 acyl side, *3 side chain or, on linkers, in order; H or OH if unused. Where a SMILES comes first, the peptide text is derived from it. Bridges are numbered along the chain shown (N, C = ends). [ ]: non-standard residue; d: D form. The star is where a group is joined. hTyr(3S-OH,4S-OH,3'-OSO3H) = N[C@H](C(=O)O)[C@H](O)[C@@H](O)c1ccc(O)c(OS(=O)(=O)O)c1; Orn(4R-OH,5R-OH) = O=C([C@H](C[C@@H](O)[C@@H](O)N[*:3])N[*:1])[*:2]; Pro(3S-OH,4S-Me) = C[C@H]1CN[C@H](C(=O)O)[C@H]1O; X1 = CCCCCOc1ccc(-c2cc(-c3ccc(C(=O)*)cc3)no2)cc1; Gln(3R-OH) = NC(=O)C[C@@H](O)[C@H](N)C(=O)O; Hyp = O=C(O)[C@@H]1C[C@@H](O)CN1

One assay has as its target T1, Adenosine receptor A3 (Homo sapiens, UniProt P0DMS8).
T1 sequence (P0DMS8 whole entry): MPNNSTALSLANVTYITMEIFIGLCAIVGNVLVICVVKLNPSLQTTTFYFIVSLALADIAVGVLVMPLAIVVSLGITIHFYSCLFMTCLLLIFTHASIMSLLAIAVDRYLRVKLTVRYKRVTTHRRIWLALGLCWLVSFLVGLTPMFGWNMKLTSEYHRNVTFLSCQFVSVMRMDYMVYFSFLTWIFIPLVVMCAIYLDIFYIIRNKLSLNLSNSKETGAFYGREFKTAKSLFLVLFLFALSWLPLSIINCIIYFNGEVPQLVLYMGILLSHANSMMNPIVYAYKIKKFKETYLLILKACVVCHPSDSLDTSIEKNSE

Assay [1] deals with T2, Alpha-1A adrenergic receptor (Homo sapiens, UniProt P35348).
T2 sequence (P35348 whole entry): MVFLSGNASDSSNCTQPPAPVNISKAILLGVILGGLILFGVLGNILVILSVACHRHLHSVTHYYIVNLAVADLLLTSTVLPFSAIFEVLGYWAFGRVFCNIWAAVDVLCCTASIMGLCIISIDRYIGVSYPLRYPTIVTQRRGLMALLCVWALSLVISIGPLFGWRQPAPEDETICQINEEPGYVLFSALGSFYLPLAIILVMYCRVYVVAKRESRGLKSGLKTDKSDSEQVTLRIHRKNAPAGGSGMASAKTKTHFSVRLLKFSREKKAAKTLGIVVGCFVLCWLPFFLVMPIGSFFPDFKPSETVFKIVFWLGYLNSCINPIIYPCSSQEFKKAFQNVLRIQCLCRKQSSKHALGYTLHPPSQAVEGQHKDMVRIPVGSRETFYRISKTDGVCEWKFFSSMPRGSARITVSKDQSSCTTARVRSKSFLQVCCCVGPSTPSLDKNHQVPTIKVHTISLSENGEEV
Format: functional, cell-based.

In assay [2] the target is Gamma-aminobutyric acid receptor subunit alpha-1/alpha-2/beta-2/gamma-2 (Homo sapiens, UniProt P14867+P18507+P47869+P47870). Format: protein-complex assay.
Sequence of Gamma-aminobutyric acid receptor subunit alpha-1/alpha-2/beta-2/gamma-2 (P14867 whole entry): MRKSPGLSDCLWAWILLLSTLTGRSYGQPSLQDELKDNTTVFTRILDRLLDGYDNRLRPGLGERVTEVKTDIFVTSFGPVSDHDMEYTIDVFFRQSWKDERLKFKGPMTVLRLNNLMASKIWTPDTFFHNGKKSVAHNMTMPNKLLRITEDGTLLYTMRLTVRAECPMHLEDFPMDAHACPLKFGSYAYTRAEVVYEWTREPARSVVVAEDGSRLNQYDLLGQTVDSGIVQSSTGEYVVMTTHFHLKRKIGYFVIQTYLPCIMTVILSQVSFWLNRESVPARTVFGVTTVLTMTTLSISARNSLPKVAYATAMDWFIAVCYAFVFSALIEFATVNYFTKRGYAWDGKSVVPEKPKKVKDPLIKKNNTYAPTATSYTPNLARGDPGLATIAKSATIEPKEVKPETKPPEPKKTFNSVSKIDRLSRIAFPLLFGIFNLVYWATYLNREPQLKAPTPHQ
Sequence of Gamma-aminobutyric acid receptor subunit alpha-1/alpha-2/beta-2/gamma-2 (P47870 whole entry): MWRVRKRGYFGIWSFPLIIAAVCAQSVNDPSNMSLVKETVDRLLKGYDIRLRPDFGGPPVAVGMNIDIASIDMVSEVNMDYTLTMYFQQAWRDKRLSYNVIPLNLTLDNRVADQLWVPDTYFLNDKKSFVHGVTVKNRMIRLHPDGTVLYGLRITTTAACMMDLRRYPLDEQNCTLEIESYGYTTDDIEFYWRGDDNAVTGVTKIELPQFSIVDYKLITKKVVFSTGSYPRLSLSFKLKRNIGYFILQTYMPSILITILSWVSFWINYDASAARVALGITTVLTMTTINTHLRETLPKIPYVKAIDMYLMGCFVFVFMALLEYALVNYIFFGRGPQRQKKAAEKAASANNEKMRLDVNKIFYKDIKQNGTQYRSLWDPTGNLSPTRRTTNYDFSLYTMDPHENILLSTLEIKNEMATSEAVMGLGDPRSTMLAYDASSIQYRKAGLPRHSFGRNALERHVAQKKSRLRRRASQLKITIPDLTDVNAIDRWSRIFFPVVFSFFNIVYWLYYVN
Sequence of Gamma-aminobutyric acid receptor subunit alpha-1/alpha-2/beta-2/gamma-2 (P18507 whole entry): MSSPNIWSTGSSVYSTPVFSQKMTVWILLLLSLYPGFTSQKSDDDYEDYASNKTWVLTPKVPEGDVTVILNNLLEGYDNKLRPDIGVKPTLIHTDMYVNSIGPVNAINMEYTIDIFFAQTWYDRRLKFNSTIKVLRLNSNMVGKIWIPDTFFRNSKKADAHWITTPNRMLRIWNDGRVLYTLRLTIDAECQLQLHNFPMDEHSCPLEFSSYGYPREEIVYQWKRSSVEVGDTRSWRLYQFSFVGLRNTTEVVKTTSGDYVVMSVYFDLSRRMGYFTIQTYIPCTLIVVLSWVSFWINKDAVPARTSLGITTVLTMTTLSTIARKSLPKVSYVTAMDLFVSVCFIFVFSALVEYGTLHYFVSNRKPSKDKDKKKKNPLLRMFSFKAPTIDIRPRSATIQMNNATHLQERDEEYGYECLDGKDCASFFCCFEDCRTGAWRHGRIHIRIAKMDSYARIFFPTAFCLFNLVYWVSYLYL
Sequence of Gamma-aminobutyric acid receptor subunit alpha-1/alpha-2/beta-2/gamma-2 (P47869 whole entry): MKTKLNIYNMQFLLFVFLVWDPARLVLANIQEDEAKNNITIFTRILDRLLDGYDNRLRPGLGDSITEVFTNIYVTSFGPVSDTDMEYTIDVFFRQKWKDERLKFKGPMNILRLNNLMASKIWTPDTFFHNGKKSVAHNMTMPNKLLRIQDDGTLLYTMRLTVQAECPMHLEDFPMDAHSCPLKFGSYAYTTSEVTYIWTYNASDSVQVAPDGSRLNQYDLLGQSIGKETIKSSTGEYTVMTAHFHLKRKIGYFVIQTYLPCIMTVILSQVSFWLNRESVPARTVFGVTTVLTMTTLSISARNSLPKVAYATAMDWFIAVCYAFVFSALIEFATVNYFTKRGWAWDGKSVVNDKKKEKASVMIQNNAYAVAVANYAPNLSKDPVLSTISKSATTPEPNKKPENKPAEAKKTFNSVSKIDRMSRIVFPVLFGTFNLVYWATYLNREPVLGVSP
The target of assay [3] is T2, Alpha-1A adrenergic receptor. Format: functional, cell-based. The source holds these as a separate data set.
Assay [4] addresses T3, Gastrin/cholecystokinin type B receptor (Homo sapiens, UniProt P32239).
T3 sequence (P32239 whole entry): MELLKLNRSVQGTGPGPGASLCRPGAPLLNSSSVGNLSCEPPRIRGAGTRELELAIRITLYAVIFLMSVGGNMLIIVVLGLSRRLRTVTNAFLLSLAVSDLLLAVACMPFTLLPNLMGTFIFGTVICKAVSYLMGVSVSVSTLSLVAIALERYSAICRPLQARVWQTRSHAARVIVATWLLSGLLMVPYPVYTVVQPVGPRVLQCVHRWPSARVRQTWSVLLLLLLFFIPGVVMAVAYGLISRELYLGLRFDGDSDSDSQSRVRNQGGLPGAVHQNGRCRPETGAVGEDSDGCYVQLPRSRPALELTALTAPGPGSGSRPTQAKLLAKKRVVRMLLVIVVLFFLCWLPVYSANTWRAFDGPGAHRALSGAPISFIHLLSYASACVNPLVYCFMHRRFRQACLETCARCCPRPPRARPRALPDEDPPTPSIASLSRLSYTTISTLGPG

Another assay concerns the target Cannabinoid receptor 1 (Homo sapiens, UniProt P21554). The class given is functional, cell-based.
The target of assay [5] is Gamma-aminobutyric acid receptor subunit alpha-1 (Rattus norvegicus, UniProt P62813).
Sequence of Gamma-aminobutyric acid receptor subunit alpha-1 (P62813 whole entry): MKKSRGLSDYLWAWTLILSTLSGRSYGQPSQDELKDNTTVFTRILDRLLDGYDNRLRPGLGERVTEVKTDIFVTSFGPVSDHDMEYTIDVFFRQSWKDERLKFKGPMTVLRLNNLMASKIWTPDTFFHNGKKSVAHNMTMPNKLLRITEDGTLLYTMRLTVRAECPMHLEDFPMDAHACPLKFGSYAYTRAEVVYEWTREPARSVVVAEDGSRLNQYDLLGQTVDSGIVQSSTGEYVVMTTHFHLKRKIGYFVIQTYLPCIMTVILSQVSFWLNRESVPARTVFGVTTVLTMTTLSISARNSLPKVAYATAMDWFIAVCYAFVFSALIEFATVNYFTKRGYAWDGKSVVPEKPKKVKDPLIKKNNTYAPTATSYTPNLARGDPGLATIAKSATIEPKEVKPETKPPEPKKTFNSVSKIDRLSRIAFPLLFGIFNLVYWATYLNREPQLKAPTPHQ
In assay [6] the target is Glutamate receptor ionotropic, NMDA 1 (Rattus norvegicus, UniProt P35439).
A further assay has as its target Motilin receptor (Homo sapiens, UniProt O43193).
In assay [7] the target is T4, Neuropeptide Y receptor type 1 (Homo sapiens, UniProt P25929).
T4 sequence (P25929 whole entry): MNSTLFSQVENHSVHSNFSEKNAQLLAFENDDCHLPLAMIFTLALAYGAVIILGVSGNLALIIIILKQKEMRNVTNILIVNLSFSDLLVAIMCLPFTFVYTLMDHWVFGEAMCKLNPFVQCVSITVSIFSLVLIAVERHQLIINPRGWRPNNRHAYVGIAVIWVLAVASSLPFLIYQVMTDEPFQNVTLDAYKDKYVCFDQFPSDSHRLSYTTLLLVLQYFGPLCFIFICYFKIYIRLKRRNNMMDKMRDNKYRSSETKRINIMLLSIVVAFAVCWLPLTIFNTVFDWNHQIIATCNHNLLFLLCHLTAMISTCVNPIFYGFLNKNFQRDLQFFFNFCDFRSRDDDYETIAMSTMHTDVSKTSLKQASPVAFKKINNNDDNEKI

The target of assay [8] is 3',5'-cyclic-AMP phosphodiesterase 4D (Homo sapiens, UniProt Q08499). The class given is functional.
Sequence of 3',5'-cyclic-AMP phosphodiesterase 4D (Q08499 whole entry): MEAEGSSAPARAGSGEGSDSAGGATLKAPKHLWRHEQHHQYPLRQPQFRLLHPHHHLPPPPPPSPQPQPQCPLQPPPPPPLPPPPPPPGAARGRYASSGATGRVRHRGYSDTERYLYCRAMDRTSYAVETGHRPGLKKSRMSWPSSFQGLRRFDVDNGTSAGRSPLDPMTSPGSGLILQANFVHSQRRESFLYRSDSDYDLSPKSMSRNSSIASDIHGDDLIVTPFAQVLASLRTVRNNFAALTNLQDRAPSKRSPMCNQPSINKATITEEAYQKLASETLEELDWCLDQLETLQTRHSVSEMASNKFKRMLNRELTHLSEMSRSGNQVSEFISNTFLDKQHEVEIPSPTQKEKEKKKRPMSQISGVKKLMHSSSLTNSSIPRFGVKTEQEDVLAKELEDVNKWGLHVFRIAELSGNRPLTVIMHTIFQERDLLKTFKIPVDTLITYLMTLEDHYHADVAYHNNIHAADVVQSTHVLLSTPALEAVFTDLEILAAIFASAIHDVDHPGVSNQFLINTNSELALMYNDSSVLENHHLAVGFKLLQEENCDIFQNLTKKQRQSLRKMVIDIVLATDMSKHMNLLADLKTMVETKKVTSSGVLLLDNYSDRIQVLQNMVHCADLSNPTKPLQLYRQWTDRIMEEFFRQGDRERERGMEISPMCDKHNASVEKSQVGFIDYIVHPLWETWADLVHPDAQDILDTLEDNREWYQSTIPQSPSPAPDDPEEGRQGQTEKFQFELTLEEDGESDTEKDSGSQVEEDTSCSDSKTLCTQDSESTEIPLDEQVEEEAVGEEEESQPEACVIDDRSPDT
In assay [9] the target is T5, Amine oxidase [flavin-containing] A (Homo sapiens, UniProt P21397).
T5 sequence (P21397 whole entry): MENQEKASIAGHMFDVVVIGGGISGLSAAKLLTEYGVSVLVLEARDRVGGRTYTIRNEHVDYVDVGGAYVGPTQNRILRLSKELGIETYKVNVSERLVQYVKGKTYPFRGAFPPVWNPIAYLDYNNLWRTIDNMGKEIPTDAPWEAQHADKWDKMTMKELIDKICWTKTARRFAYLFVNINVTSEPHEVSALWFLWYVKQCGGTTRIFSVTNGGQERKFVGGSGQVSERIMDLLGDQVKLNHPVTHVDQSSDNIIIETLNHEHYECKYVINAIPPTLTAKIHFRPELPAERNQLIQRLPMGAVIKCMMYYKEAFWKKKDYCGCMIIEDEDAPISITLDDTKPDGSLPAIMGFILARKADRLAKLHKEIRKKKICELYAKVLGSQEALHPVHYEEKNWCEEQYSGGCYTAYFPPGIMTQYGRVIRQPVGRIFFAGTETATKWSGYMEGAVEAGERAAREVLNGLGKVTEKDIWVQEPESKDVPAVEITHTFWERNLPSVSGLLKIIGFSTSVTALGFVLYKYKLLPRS
Format: functional.

The target in the next assay is D(3) dopamine receptor (Homo sapiens, UniProt P35462).
Sequence of D(3) dopamine receptor (P35462 whole entry): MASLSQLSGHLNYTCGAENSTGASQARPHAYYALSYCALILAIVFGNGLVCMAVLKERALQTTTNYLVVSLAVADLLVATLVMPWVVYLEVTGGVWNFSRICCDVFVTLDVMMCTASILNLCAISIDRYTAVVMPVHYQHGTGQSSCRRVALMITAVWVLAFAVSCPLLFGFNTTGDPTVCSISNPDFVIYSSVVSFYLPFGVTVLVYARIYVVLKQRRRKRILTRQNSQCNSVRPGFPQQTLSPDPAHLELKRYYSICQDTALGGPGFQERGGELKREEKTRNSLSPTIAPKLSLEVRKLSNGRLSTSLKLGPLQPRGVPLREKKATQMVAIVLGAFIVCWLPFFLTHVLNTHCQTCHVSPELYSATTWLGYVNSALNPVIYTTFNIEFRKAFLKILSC
Further: assay procedure not described here.

Sequence of Motilin receptor (O43193 whole entry): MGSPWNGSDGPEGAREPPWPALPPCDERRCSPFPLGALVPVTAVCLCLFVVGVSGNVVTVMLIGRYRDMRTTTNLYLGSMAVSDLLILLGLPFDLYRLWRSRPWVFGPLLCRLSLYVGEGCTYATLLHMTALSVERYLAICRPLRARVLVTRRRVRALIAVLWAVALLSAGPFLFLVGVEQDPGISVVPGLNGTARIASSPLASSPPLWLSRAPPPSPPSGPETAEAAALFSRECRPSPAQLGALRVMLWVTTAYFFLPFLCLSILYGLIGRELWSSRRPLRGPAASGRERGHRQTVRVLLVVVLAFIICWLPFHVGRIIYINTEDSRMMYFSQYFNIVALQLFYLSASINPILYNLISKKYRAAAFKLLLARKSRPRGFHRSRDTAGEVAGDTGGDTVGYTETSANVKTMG
Sequence of Cannabinoid receptor 1 (P21554 whole entry): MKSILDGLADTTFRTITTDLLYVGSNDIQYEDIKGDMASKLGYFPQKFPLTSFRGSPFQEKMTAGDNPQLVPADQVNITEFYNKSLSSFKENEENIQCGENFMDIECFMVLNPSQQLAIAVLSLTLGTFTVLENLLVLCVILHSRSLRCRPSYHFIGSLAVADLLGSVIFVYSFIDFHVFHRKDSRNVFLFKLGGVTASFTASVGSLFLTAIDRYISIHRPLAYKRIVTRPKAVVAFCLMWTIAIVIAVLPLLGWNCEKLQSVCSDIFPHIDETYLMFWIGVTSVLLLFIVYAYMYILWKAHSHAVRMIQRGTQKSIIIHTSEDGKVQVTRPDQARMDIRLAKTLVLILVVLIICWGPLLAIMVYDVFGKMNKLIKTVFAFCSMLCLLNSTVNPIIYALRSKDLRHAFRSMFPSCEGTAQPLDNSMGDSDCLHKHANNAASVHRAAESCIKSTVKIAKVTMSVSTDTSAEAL

As for `CN1CCC[C@@H]1Cc1c[nH]c2ccc(CCS(=O)(=O)c3ccccc3)cc12`, the AC50 (on Adenosine receptor A3; in [1]) was over 30 µM in each case.

In the case of `COc1nccnc1NS(=O)(=O)c1ccc(N)cc1`, the AC50 (on Adenosine receptor A3; in assay [1]; in [2]) was over 30 µM in each case.

As to `NC(=O)c1nc(F)c[nH]c1=O`, the AC50 (at Adenosine receptor A3; in assay [1]) was over 30 µM in each case.

`CN(C)CCCN1C(=O)c2cc([N+](=O)[O-])ccc2Oc2ccccc21`: the AC50 (on Adenosine receptor A3; in assay [1]; in assay [2]) was over 30 µM each time.

Turning to `O=S(=O)(O)CCS` [2-MERCAPTOETHANESULFONIC ACID], the AC50 (at Adenosine receptor A3; in assay [1]; in assay [2]) was over 30 µM each time.

As for `O=C(O)COc1nn(Cc2ccccc2)c2ccccc12` [BENDAZAC], the AC50 (on Adenosine receptor A3; in assay [1]; in assay [2]) was over 30 µM each time.

Take `Cc1ccc([C@@H]2O[C@H](CO)[C@@H](O)[C@H](O)[C@H]2O)cc1Cc1ccc(-c2ccc(F)cc2)s1` [CANAGLIFLOZIN ANHYDROUS]: the AC50 on Adenosine receptor A3 was 18.4 µM; in assay [1], over 30 µM.

For the compound `O=C(O)CCCc1ccc(N(CCCl)CCCl)cc1` [CHLORAMBUCIL], the AC50 on Adenosine receptor A3 was over 30 µM; in [1] it was over 30 µM; in [2], 22.1 µM.

With `CN(C)CCN(Cc1ccc(Cl)cc1)c1ccccn1` [CHLOROPYRAMINE], the results for the AC50 (at Adenosine receptor A3; in assay [1]) were over 30 µM and 6.52 µM, respectively.

Turning to `O=C(O)c1cc(=O)c2ccccc2o1` [CHROMOCARB], the AC50 (on Adenosine receptor A3; in assay [1]) was over 30 µM each time.

For `CN(CC(=O)O)C(=N)N` [CREATINE], the AC50 (at Adenosine receptor A3; in assay [1]; in assay [2]) was over 30 µM in each case.

Turning to `N[C@@H](CSSC[C@H](N)C(=O)O)C(=O)O` [CYSTINE], the half-maximal activity concentration (AC50) (on Adenosine receptor A3; in assay [1]) was over 30 µM throughout.

As for `Cn1c(=O)c2c(ncn2CC(O)CO)n(C)c1=O` (centres undefined) [DYPHYLLINE], the AC50 (at Adenosine receptor A3; in [1]; in assay [2]) was over 30 µM in each case.

In the case of `C[C@]12CC[C@@H]3c4ccc(O)cc4CC[C@H]3[C@@H]1CC[C@@H]2OC(=O)CCC1CCCC1` [ESTRADIOL CYPIONATE], the concentration at half-maximal activity (AC50) on Adenosine receptor A3 is 9.98 µM; in assay [1], over 30 µM.

For the compound `CC1(C)O[C@@H]2C[C@H]3[C@@H]4CCC5=CC(=O)CC[C@]5(C)[C@@]4(F)[C@@H](O)C[C@]3(C)[C@]2(C(=O)CCl)O1` [HALCINONIDE], the AC50 (on Adenosine receptor A3; in [1]) was over 30 µM in each case.

Consider `C[C@]12CCC(=O)C=C1CC[C@@H]1[C@@H]2[C@@H](O)C[C@@]2(C)[C@H]1CC[C@]2(O)C(=O)COC(=O)CCC(=O)O` [HYDROCORTISONE HEMISUCCINATE ANHYDROUS], for which the AC50 (on Adenosine receptor A3; in assay [1]) was over 30 µM in each case.

Turning to `N=C(N)NCc1cccc([123I])c1` [IOBENGUANE I 123], the AC50 at Adenosine receptor A3 is over 30 µM; in [1], 10.7 µM.

With `C=C1c2c(Cl)ccc(O)c2C(=O)C2=C(O)[C@]3(O)C(=O)C(C(N)=O)=C(O)[C@@H](N(C)C)[C@@H]3[C@@H](O)[C@H]12` [MECLOCYCLINE], the AC50 (on Adenosine receptor A3; in assay [1]) was over 30 µM throughout.

With `Cc1cc2c(OCC(O)CNC(C)C)cccc2[nH]1` (centres undefined) [MEPINDOLOL], the half-maximal activity concentration (AC50) (on Adenosine receptor A3; in [1]; in assay [2]) was over 30 µM in each case.

In the case of `CCCCCOc1ccc(-c2cc(-c3ccc(C(=O)N[C@H]4C[C@@H](O)[C@@H](O)NC(=O)[C@@H]5[C@@H](O)[C@@H](C)CN5C(=O)[C@H]([C@H](O)CC(N)=O)NC(=O)[C@H]([C@H](O)[C@@H](O)c5ccc(O)c(OS(=O)(=O)O)c5)NC(=O)[C@@H]5C[C@@H](O)CN5C(=O)[C@H]([C@@H](C)O)NC4=O)cc3)no2)cc1` [MICAFUNGIN] (X1-[Orn(4R-OH,5R-OH)]T[Hyp][hTyr(3S-OH,4S-OH,3'-OSO3H)][Gln(3R-OH)][Pro(3S-OH,4S-Me)]; lactam 1-C), the AC50 at Adenosine receptor A3 was 11.4 µM; in assay [1] it was over 30 µM.

Consider `CCOc1cc(N)c(Cl)cc1C(=O)NCC1CN(Cc2ccc(F)cc2)CCO1` (centres undefined) [MOSAPRIDE], for which the concentration at half-maximal activity (AC50) at Adenosine receptor A3 is 14.5 µM; in assay [1] it was over 30 µM; in assay [2], over 30 µM.

Regarding `CCOc1ccc2ccccc2c1C(=O)N[C@@H]1C(=O)N2[C@@H]1SC(C)(C)[C@@H]2C(=O)O` [NAFCILLIN], the AC50 (on Adenosine receptor A3; in [1]; in assay [2]) was over 30 µM each time.

`CC(=O)Oc1ccccc1C(=O)Nc1ncc([N+](=O)[O-])s1` [NITAZOXANIDE]: the AC50 at Adenosine receptor A3 is 9.88 µM; in assay [3], over 30 µM; in assay [4], 10 µM; at Cannabinoid receptor 1, over 30 µM; in [5], over 30 µM; in [2], over 30 µM. In addition, the AC50 in [6] is over 30 µM; on Motilin receptor, 13 µM; in assay [7] it was 17 µM; in assay [8] it was over 30 µM; in [9], 7.5 µM; on D(3) dopamine receptor, 25 µM.

In the case of `C#C[C@]1(O)CC[C@H]2[C@@H]3CCC4=C(CCC(=O)C4)[C@H]3CC[C@@]21C` [NORETHYNODREL], the concentration at half-maximal activity (AC50) at Adenosine receptor A3 was determined as 10.1 µM; in assay [1] it was 17.4 µM.

`CNC[C@H](O)c1cccc(O)c1` [PHENYLEPHRINE]: the AC50 on Adenosine receptor A3 was over 30 µM; in assay [4], over 30 µM; at Cannabinoid receptor 1, over 30 µM; in assay [5], over 30 µM; in assay [6] it was over 10 µM; at Motilin receptor, over 10 µM. For the same compound, the AC50 in [7] was over 30 µM; in assay [8], over 30 µM; in [9], over 10 µM; on D(3) dopamine receptor it was 4.1 µM.

As to `CC(C)COc1ccc(CNC(=O)N(Cc2ccc(F)cc2)C2CCN(C)CC2)cc1` [PIMAVANSERIN], the AC50 on Adenosine receptor A3 was over 30 µM; in assay [1] it was 11.4 µM.

As to `CCCCCCCCNC(C)C(O)c1ccc(SC(C)C)cc1` (centres undefined) [SULOCTIDIL], the AC50 at Adenosine receptor A3 is 9.82 µM; in [2], over 10 µM.

Take `NCCc1ccc(O)cc1` [TYRAMINE]: the AC50 (on Adenosine receptor A3; in assay [1]) was over 30 µM each time.

A word on the AC50: it is the concentration at which the activity in the assay is half-maximal. A high value points to weaker potency.
